Reference: BindingDB's records for patent US20240010634 (H. Lee Moffitt Cancer Center and Research Institute, 2024)

Target: Activated CDC42 kinase 1 (Homo sapiens, UniProt Q07912)
Sequence (Q07912 whole entry): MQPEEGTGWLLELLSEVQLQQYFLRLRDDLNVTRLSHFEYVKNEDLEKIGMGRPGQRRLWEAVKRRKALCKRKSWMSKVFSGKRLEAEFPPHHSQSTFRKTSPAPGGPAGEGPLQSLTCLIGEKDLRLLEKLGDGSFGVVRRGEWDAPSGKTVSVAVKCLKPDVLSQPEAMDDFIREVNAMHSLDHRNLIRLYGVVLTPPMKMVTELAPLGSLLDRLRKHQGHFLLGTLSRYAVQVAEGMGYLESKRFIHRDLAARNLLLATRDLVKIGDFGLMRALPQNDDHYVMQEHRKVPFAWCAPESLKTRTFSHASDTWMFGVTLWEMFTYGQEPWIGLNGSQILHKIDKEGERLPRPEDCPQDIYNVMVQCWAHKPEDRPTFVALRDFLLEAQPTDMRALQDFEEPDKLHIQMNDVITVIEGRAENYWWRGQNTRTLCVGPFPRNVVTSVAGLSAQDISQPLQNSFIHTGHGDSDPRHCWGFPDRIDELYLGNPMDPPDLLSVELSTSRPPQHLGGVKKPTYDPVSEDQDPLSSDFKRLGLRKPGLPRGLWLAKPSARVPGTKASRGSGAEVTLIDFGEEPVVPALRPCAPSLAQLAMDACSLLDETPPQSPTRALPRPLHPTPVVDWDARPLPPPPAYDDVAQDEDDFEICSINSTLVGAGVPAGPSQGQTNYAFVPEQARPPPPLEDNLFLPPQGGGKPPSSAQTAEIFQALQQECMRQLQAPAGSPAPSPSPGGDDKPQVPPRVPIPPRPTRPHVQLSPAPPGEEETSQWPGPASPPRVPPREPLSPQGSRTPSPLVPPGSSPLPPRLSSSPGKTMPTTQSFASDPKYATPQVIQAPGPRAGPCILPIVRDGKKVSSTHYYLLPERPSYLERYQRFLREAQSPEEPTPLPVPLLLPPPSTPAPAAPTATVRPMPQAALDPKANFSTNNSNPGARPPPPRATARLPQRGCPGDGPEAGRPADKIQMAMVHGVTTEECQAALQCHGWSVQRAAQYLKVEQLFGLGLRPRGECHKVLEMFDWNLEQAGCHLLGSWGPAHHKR

IC50: 26 nM
SMILES: COc1cc(N2CCN(C)CC2)ccc1Nc1ncc(Cl)c(Nc2ccc(NS(C)(=O)=O)cc2)n1 [US20240010634, Example 33]
